Results from PMC8347148, “An Evaluation of Human Induced Pluripotent Stem Cells to Test for Cardiac Developmental Toxicity” (International Journal of Molecular Sciences, 2021).
Converted amounts (≈) assume the structure as drawn. Read-outs that look alike come from different tables or passages of the source.

Legend:
[1] = test system: differentiating hiPSCs (hiPSC-cardiomyocytes); assay: hiPSC-EST cardiac viability assay (MTT); assay type: cell-based, human; conditions: for IC50: Homo sapiens, 600 h
Description: 5-flurorouracil (5-FU), all-trans retinoic acid (atRA), and penicillin G (PenG) were selected from a subset of chemicals used in the original EST validation study. 5-FU and atRA were selected as positive test compounds due to their established embryotoxic potential while PenG was used as a negative control. All chemicals were purchased from Sigma. Stock solutions were prepared in DMSO and filtered through a 0.2 micron Acrodisc® PSF Syringe Filter (Pall Corporation, Port Washington, NY, USA), aliquoted into sterile microcentrifuge tubes and stored at −20 °C until use. Test chemicals were serially diluted to final concentrations in differentiation media. Cardiogenic cultures were treated with designated chemicals (or solvent only) through day 25 of differentiation and hFF cultures were treated with each compound for a 25 day duration period. Compounds were replenished with each medium change.
A University of Kentucky smoking machine was used to produce smoke extract solutions from commercially available conventional Marlboro Red 100 brand cigarettes as previously described. The smoking machine took a 2.2 s puff of mainstream (MS) smoke every minute. Smoke solution concentrations were made in puff equivalents (PE), which are the number of cigarette puffs dissolved in 1 mL of medium. MS smoke solutions were produced by pulling 30 puffs of MS smoke through 10 mL of DMEM. Resulting 3 PE smoke extracts were filtered through a 0.2 micron Acrodisc® PSF Syringe Filter (Pall Corporation, Port Washington, NY, USA), aliquoted into sterile microcentrifuge tubes, and stored at −80 °C until use. Serial dilutions were performed in differentiation medium to reach desired final exposure concentrations. Cardiogenic cultures were treated with smoke solutions through 25 days of differentiation. Smoke solutions were replenished with each medium change.
A 10% (w/v) Camel Snus extract was prepared as previously described. Ten grams of Snus was added to 85 mL of DMEM and allowed to incubate at 37 °C for 2 h. This initial extract solution was centrifuged for 10 min at 4500× g. Supernatant from the first round of centrifugation was then centrifuged again at 13,000× g for 1 h. The resulting supernatant was collected and pH adjusted to 7.4. 15 mL of FBS was added to the pH-adjusted Snus extract to produce a 10% stock solution of Snus tobacco extract (STE). The stock solution was then sterile-filtered with a 0.22 μm vacuum filter system. STE was aliquoted into sterile microcentrifuge tubes and stored at −80 °C until use. Serial dilutions were performed in differentiation medium to reach desired final exposure concentrations. Cardiogenic cultures were treated with STE through 25 days of differentiation. STE was replenished with each medium change.
Cardiomyocyte survival following concurrent exposure to each compound was evaluated by 3-[4,5-dimethylthiazol-2-yl]-2,5-diphenylterazolium bromide (MTT) assay from three independent differentiations each carried out in technical quintuplicate as previously described. On day 25 of differentiation, cells were incubated with MTT (5 mg/mL) for 2 h at 37 °C. MTT supernatant was removed and replaced with a desorb solution of 0.7% SDS in 2-propanol. The absorbance of the solution was measured at 570 nm in an iMark™ microplate reader (Bio-Rad) with 655 nm as a reference wavelength. Here, mitochondrial dehydrogenase activity on the MTT in solution is directly proportional to a blue-purple product that is detected at 570 nm.
(§1) Half-maximal inhibitory compound doses of differentiation (ID50) and cytotoxicity (IC50) were determined from concentration-response curves using GraphPad Prism.

TBX5 mRNA expression = assay: day 10 qPCR of TBX5 in differentiating hiPSCs; assay type: cell-based, human; conditions: for hiPSCs (d10 TBX5) ID50: day 10, 50% reduction in TBX5 gene expression vs control
Text: (§2) One of the main critiques of traditional developmental toxicity evaluations is the length of time and technical training required to successfully complete assays. As such, a shorter, quantifiable, and correct in vitro embryotoxicity assessment could improve throughput without sacrificing accuracy. Given the correct predictions achieved with contraction counts described above, we next investigated if our approach could be modified with a shorter, qPCR-based endpoint to determine differentiation inhibition. Here, we selected two cardiogenesis-specific transcription factors, TBX5 and MEF2c, to determine if the adverse differentiation outcomes would already be detectable as changes in TBX5 and MEF2c expression on day 10 of differentiation.
(§3) RNA was extracted from three wells per biological replicate using the protocol from NucleoSpin RNA II kit (Macherey-Nagel, Mountain View, CA, USA) and pooled. RNA from three independent differentiations was then quantified using a NanoDrop® 1000 spectrophotometer (ThermoFisher Scientific, Grand Island, NY, USA) at 260 nm. 25 ng of total RNA was used as a template for cDNA synthesis with a mastermix including 5 µL 5× reaction buffer, 1.25 µL 10 mM dNTPs, 1.25 µL 400 U/µL RNase inhibitor, 0.1 µL 200 U/µL reverse transcriptase, 0.1 µL 3 µg/µL random primer, and 1.5 µL DEPC H2O for a total of 25 µL per reaction. 25 ng cDNA transcripts were used for quantitative polymerase chain reaction (qPCR) SYBR green technology on the MyiQ cycler (Bio-Rad). The reactions were setup for 10 min of denaturing at 94 °C (initial), followed by 40 cycles of denaturing at 94 °C, and annealing at 60 °C each 45 s. The n-fold expression in target samples was calculated with the ΔΔCT method by standardizing Ct values to GAPDH expression. Primer sequences for human GAPDH were 5′-[…]-3′ and 5′-[…]-3′. Target genes were cardiogenic markers TBX5 and MEF2c. Primer sequences for human TBX5 were 5′-[…]-3′ and 5′-[…]-3′ and primer sequences for human MEF2c were 5′-[…]-3′ and 5′-[…]-3′ [27].
as §1

MEF2c mRNA expression = assay: day 10 qPCR of MEF2c in differentiating hiPSCs; assay type: cell-based, human
Text: as §2, §3, §1

3T3 fibroblast cells = test system: 3T3 fibroblast cells; design: method as in PMID 14761682; conditions: mESC-EST, 3T3 viability; previously obtained in the authors' lab; cited from earlier work
[2] = maximum plasma concentration, human exposure; cited from earlier work
mESCs = test system: mESCs; design: method as in PMID 14761682, PMID 21720311; conditions: EST prediction model; cited from earlier work
[3] = read-out: hiPSC IC50, day 25, MTT, 50% inhibition of viable cells vs control
[4] = day 25, MTT, 50% inhibition of viable cells vs control

CC1=C(/C=C/C(C)=C/C=C/C(C)=C/C(=O)O)C(C)(C)CCC1 [All-Trans Retinoic Acid, all-trans retinoic acid]
IC50 ([1]; day 25, MTT, 50% inhibition of viable cells vs control, read-out: hiPSC IC50): 3.64 µg/mL (≈ 12.1 µM) | concentrations with significant upregulation in TBX5 mRNA expression (TBX5 mRNA expression; day 10): lower than 1 × 10^−6 μg/mL | hiPSCs (d10 TBX5) ID50 (TBX5 mRNA expression): 3.28e-06 µg/mL | doses with steady decline in MEF2c mRNA expression (MEF2c mRNA expression; day 10): above 1 × 10^−3 μg/mL | effect on MEF2c mRNA expression (MEF2c mRNA expression; day 10): dose-dependently downregulated | MEF2c mRNA ID50 (MEF2c mRNA expression; day 10 of differentiation): 0.04 µg/mL | mESCs 3T3 IC50 (3T3 fibroblast cells): 2.7 µg/mL | Cmax [2]: 0.155–0.294 [13] μg/mL | mESC Biostatistical Embryotoxicity Classification (mESCs): Strongly embryotoxic

O=c1[nH]cc(F)c(=O)[nH]1 [5-Fluorouracil, 5-fluorouracil]
IC50 [1, 3]: 4.7e-05 µg/mL (≈ 0.000361 µM) | concentrations with reductions in hiPSC cell viability ([1]; MTT, Figure 4A): above 1 × 10^−6 μg/mL | hiPSC IC50 [1, 4]: 4.726e-05 µg/mL | concentrations with dramatically reduced d10 TBX5 mRNA expression (TBX5 mRNA expression; day 10): above 1 × 10^−4 μg/mL | hiPSCs (d10 TBX5) ID50 (TBX5 mRNA expression): 0.000179 µg/mL | effect on MEF2c mRNA expression (MEF2c mRNA expression; day 10): No reductions in MEF2c mRNA expression | mESCs 3T3 IC50 (3T3 fibroblast cells): 0.05 µg/mL | Cmax [2]: 0.94 [13] μg/mL | mESC Biostatistical Embryotoxicity Classification (mESCs): Strongly embryotoxic

CC1(C)S[C@@H]2[C@H](NC(=O)Cc3ccccc3)C(=O)N2[C@H]1C(=O)O [Penicillin G, penicillin G]
IC50 [1, 3]: < 1000 µg/mL | hiPSC IC50 [1, 4]: >1000 µg/mL | effect on hiPSC cell viability ([1]; tested concentration range): did not find any reduced cell survival | effect on TBX5 mRNA expression (TBX5 mRNA expression; day 10): did not significantly impact TBX5 mRNA expression | hiPSCs (d10 TBX5) ID50 (TBX5 mRNA expression): >1000 µg/mL | effect on MEF2c mRNA expression (MEF2c mRNA expression; day 10): remained largely unchanged | mESCs 3T3 IC50 (3T3 fibroblast cells): 1000 µg/mL | Cmax [2]: 134.6 [12] μg/mL | mESC Biostatistical Embryotoxicity Classification (mESCs): Not embryotoxic
